This is an account of results in BindingDB's records for PubMed 36346645 (University of Copenhagen, 2022).

The test deals with Calcium/calmodulin-dependent protein kinase type II subunit alpha (Rattus norvegicus, UniProt P11275). The test is described as follows: Displacement of [3H]NCS-382 from CaMK2alpha in rat brain cortical membrane homogenates measured after 1 hr by TopCount scintillation counting method.

Structures are written as SMILES.

Sequence of Calcium/calmodulin-dependent protein kinase type II subunit alpha (P11275 whole entry): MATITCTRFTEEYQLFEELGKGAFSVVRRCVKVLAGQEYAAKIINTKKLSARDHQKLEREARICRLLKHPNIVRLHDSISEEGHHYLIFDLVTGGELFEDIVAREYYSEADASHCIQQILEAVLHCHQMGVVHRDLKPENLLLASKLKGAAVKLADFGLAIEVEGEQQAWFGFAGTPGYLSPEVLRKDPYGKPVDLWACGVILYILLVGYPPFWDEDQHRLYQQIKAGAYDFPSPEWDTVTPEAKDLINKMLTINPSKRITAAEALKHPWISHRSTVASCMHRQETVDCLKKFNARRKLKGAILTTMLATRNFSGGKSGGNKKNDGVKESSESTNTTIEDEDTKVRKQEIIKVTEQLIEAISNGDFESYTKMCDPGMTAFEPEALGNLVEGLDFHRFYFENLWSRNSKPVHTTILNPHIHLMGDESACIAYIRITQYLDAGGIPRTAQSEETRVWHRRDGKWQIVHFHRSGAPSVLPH

As to `O=C(O)/C=C1\CCCc2cc(I)ccc2C1O` (stereo unspecified), the Ki was determined as 50 nM.
